According to article PMC8528301 (PLoS ONE, 2021):
Values joined by “and” are separate entries in the source; they are usually repeats but may differ in a detail not shown here. Identical values can stand only once.

Assay: Dasatinib single oral gavage plasma pharmacokinetics (NLME modeling)
Assay type: in vivo, mouse
Design: DV (dasatinib plasma concentration): unit: ng/mL
Description: Dasatinib was dissolved in 80 mMol/L sodium citrate buffer pH 3.1 for a total dasatinib concentration of 1 mg/mL and a 10 mL/kg gavage volume. Mice were grouped by VD3 status and sex and studied at 8 and 10 weeks of age. […] Saphenous and submandibular bleeds of mice using a single-use Sarstedt Minivette POCT 50 μL K3 EDTA capillary device are humane methods for obtaining small volumes of blood over multiple time points, preferrable to retroorbital bleeds, and were approved for this study that required blood sampling at multiple time points (three) after dasatinib administration. Each mouse was sampled three times on two separate dasatinib dosing occasions. Blood was collected into the Minivette capillary device, dispensed into a microtube and vortexed to mix the anticoagulant. The tubes were then immediately centrifuged to plasma and stored on dry ice for the remainder of the study. At the end of the in vivo procedures, plasma samples were transferred from dry ice and placed at -80°C until analysis.
Total plasma dasatinib concentrations were assessed using a sensitive and specific liquid chromatography, tandem mass spectrometry (LC-MS/MS) assay. Dasatinib stock solutions were prepared in acetonitrile and used to spike matrix calibrators and quality controls. Protein precipitation was performed using a 1:4 ratio of plasma to 15 ng/mL erlotinib HCl (St. Jude Compound Management, S00004053, Inventory ID: SJCH0042996, Purity > 95%) in methanol as an internal standard. A 3μL aliquot of the extracted supernatant was injected onto a Shimadzu LC-20ADXR high performance liquid chromatography system via a LEAP CTC PAL autosampler. The LC separation was performed using a Phenomenex Kinetex 2.6 um EVO C18 (100A, 50 x 2.1 mm) maintained at 50°C with gradient elution at a flow rate of 0.5 mL/min. The binary mobile phase gradient began with a linear increase to 100% B in 4.0 minutes. The column was then rinsed for 2.0 minutes at 100% B and then equilibrated at the initial conditions for two minutes for a total run time of eight minutes.
Analyte and IS were detected with tandem mass spectrometry using a SCIEX API 5500 Q-TRAP in the positive ESI mode with monitoring of the following mass transitions: Dasatinib 488.20 -> 401.00, erlotinib HCl 394.20 -> 250.10.
The experimental bioanalytical runs were all found to be acceptable for the purpose of a singlicate non-GLP, preclinical PK assessment. A linear model (1/X^2 weighting) fit the calibrators across the 1.00 to 500 ng/mL range, with a correlation coefficient (R) of […]. The lower limit of quantification (LLOQ), defined as a peak area signal-to-noise ratio of 5 or greater verses a matric blank with IS, was 1.00 ng/mL.
§ To evaluate the plasma pharmacokinetics (PK) of dasatinib af t er two separate single oral gavage doses of solution, separated by a washout period, in normal C57BL/6 mice […]
vs 10wk) on the plasma PK of oral dasatinib us ing a nonlinear mixed effects (NLME) PK modeling […]
2. 1 In Vivo Pharmacokinetic (PK) Study
The total plasma PK of dasatinib in C57BL/6 mice (The Jackson Laboratory) was assessed after single oral gavages of 10 mg/kg of dasatinib free base equivalents. Dasatinib (St. Jude Compound […]
sodium citrate buffer pH 3.1 for a final dasatinib concentration of 1 mg/mL for a 10 mL/kg gavage volume.
Mice were grouped by Vitamin D dietary sufficiency status and sex, and studied at 8 and 10 weeks of age. Survival saphenous and facial vein bleeding of mice was conducted using IACUC-approved […]
was sampled 3 times on the 2 separate occasions of dasatinib dosing. […] The tubes were then immediately centrifuged to plasma, and stored on dry ice for […]

Structure (SMILES): Cc1nc(Nc2ncc(C(=O)Nc3c(C)cccc3Cl)s2)cc(N2CCN(CCO)CC2)n1 [dasatinib]
- calculated Cgut (10 mg/kg into a gastric volume of 300–400 μL): 1.5 mM
- influence of VD3 status, sex, or age on oral dasatinib PK (10 mg/kg oral gavage, 8 wk vs 10 wk): no influence
- Q pop (Base Model): 19.5 mL/min/kg
- V1 pop (apparent volume of central compartment) (Base Model): 12.7 L/kg
- V2 pop (Base Model): 11.1 L/kg
- omega_Cl (inter-individual variability) (Base Model): 0.294 %CV
- omega_V1 (inter-individual variability) (Base Model): 0.465 %CV
- Tk0 pop (Base Model, 10 mg/kg oral gavage, zero order absorption duration): 1.29 h
- Q pop (Final Model): 21 mL/min/kg
- V1 pop (Final Model): 12.2 L/kg
- V2 pop (Final Model): 11.2 L/kg
- omega_Cl (Final Model): 0.287 %CV
- omega_V1 (Final Model): 0.477 %CV
- Tk0 pop (Final Model (VD3 status and sex covariates on Cl)): 1.33 h
- DV (dasatinib plasma concentration) (GROUP:VD3 Def, SEX:F, OCC 1, time 0.5): 206.1 and 158.35
- DV (dasatinib plasma concentration) (GROUP:VD3 Def, SEX:F, OCC 1, time 1): 457.04 and 404.1
- DV (dasatinib plasma concentration) (GROUP:VD3 Def, SEX:F, OCC 1, time 2): > 500 and 323.65
- DV (dasatinib plasma concentration) (GROUP:VD3 Def, SEX:F, OCC 1, time 8): 33.172 and 43.592
- DV (dasatinib plasma concentration) (GROUP:VD3 Def, SEX:F, OCC 1, time 16): 2.7889 and 2.9067
- DV (dasatinib plasma concentration) (GROUP:VD3 Def, SEX:F, OCC 2, time 0.125): 29.279 and 44.718
- DV (dasatinib plasma concentration) (GROUP:VD3 Def, SEX:F, OCC 2, time 0.25): 240.93 and 155.4
- DV (dasatinib plasma concentration) (GROUP:VD3 Def, SEX:F, OCC 2, time 0.5): 128.51 and 161.37
- DV (dasatinib plasma concentration) (GROUP:VD3 Def, SEX:F, OCC 2, time 16): 6.2042 and 7.8308
- DV (dasatinib plasma concentration) (GROUP:VD3 Def, SEX:M, OCC 1, time 0.25): 143.39 and 275.48
- DV (dasatinib plasma concentration) (GROUP:VD3 Def, SEX:M, OCC 1, time 0.5): 240.61 and 267.78
- DV (dasatinib plasma concentration) (GROUP:VD3 Def, SEX:M, OCC 1, time 2): 760.24
- DV (dasatinib plasma concentration) (GROUP:VD3 Def, SEX:M, OCC 1, time 4): 99.618 and 81.306
- DV (dasatinib plasma concentration) (GROUP:VD3 Def, SEX:M, OCC 1, time 8): 11.773 and 10.821
- DV (dasatinib plasma concentration) (GROUP:VD3 Def, SEX:M, OCC 1, time 24): 7.0494 and 5.7321
- DV (dasatinib plasma concentration) (GROUP:VD3 Def, SEX:M, OCC 2, time 0.5): 117.58 and 209.13
- DV (dasatinib plasma concentration) (GROUP:VD3 Def, SEX:M, OCC 2, time 2): 376.78 and > 500
- DV (dasatinib plasma concentration) (GROUP:VD3 Def, SEX:M, OCC 2, time 4): 62.561 and 70.903
- DV (dasatinib plasma concentration) (GROUP:VD3 Def, SEX:M, OCC 2, time 8): 13.735 and 13.061
- DV (dasatinib plasma concentration) (GROUP:VD3 Def, SEX:M, OCC 2, time 16): 8.5466 and 7.4123
- DV (dasatinib plasma concentration) (GROUP:VD3 Suf, SEX:F, OCC 1, time 0.25): 244.67 and 197.71
- DV (dasatinib plasma concentration) (GROUP:VD3 Suf, SEX:F, OCC 1, time 0.5): 144.41 and 217.29
- DV (dasatinib plasma concentration) (GROUP:VD3 Suf, SEX:F, OCC 1, time 2): 466.97 and > 500
- DV (dasatinib plasma concentration) (GROUP:VD3 Suf, SEX:F, OCC 1, time 4): 105.56 and 62.725
- DV (dasatinib plasma concentration) (GROUP:VD3 Suf, SEX:F, OCC 1, time 8): 11.198 and 14.683
- DV (dasatinib plasma concentration) (GROUP:VD3 Suf, SEX:F, OCC 1, time 16): 1.9898 and 3.161
- DV (dasatinib plasma concentration) (GROUP:VD3 Suf, SEX:F, OCC 2, time 0.5): 124.69 and 151.83
- DV (dasatinib plasma concentration) (GROUP:VD3 Suf, SEX:F, OCC 2, time 2): 295.49 and 395.48
- DV (dasatinib plasma concentration) (GROUP:VD3 Suf, SEX:F, OCC 2, time 4): 72.682 and 42.565
- DV (dasatinib plasma concentration) (GROUP:VD3 Suf, SEX:F, OCC 2, time 16): 9.1881 and 6.2417
- DV (dasatinib plasma concentration) (GROUP:VD3 Suf, SEX:M, OCC 1, time 0.125): 35.897 and 45.322
- DV (dasatinib plasma concentration) (GROUP:VD3 Suf, SEX:M, OCC 1, time 0.25): 87.715 and 117.65
- DV (dasatinib plasma concentration) (GROUP:VD3 Suf, SEX:M, OCC 1, time 2): > 500 and 483.94
- DV (dasatinib plasma concentration) (GROUP:VD3 Suf, SEX:M, OCC 1, time 4): 103.68 and 89.88
